Test results reported in patent publication US4065570A (priority 1975, dated 1977).
Read-outs that look alike come from different tables or passages of the source.

Legend:
Cynomolgus monkeys = settings: cynomolgus monkey, in vivo, 25 mg/kg/day
[1] = tested on: Mahoney strain of Polio virus; type: in vivo, Cynomolgus monkey
mice = experiment: LD50 in mice; type: in vivo
[2] = tested on: primary monkey kidney cells; experiment: cytotoxicity against primary monkey kidney cells; type: cell-based, Cercopythecus monkey; settings: for Toxicity (%): pMK
Experimental: (§1) In preparing the compounds for testing, they were handled aseptically throughout. The compounds were dissolved in a minimum amount of a suitable solvent, and the final dilutions were made up to the required volume in a complete culture medium in a concentration not exceeding the predetermined maximum non-cytotoxic levels.
(§2) The cell cultures used in all primary in vitro antipicorna virus screening tests were an established cell line of the African green monkey kidney (VERO), a primary cell culture of the Cercopythecus monkey kidney, or human embryonic lung diploid cells WI-38.
(§3) The cytotoxic stuides were performed on each of the compounds to determine the level of response of the cells used to the potentially toxic action of the substances.
(§4) The cells were grown in test tubes in a suitable medium. Immediately before use the initial medium was replaced with the one which contained the test compound in an appropriate concentration. After the virus was added, the infected culture was incubated at 37° C for a number of days and the cytopathic effect of the virus observed and recorded. The results were read every day in all of the tubes and the destruction of cells assessed in precentage of the cell sheet destroyed: 0-25-50-75-100%. As controls, cells with only virus (for cytopathic effect) or with only the compound (for cytotoxic effect) were used as well as the normal, uninfected cells (no cytotoxic -- no cytopathic effects).

Echo 9 = type: cell-based; settings: Echo 9, Vero, 31.6 TCID50
Experimental: as §1, §2
(§5) Standard batches of the viruses were made by growing the virus in an appropriate cell culture and then making a pool which was dispersed in ampoules and kept frozen at -76° C until used. The titer of each virus was determined in the cell cultures used.
as §4
(§6) Net difference in cytopathic effect between treated and control tubes expressed in percentage give the extent of the inhibitory activity of the substance.
(§7) The TCID50 represents the tissue culture infective dose of virus that will destroy 50% of the cells.

Echo 11 = type: cell-based; settings: Echo 11, Primary Monkey Kidney Cells, 178 TCID50
Experimental: as §1, §2, §5, §4, §6, §7

Polio I = experiment: organism not typed; type: cell-based; settings: Vero
[3] = tested on: viruses of the Picorna group; experiment: antiviral activity (general statements); type: cell-based; settings: result in words
Experimental: The in vitro activity of representative compounds of the present invention are set forth below.
as §1, §2, §4, §6

Vero cells = experiment: cytotoxicity against Vero cells; type: cell-based, African green monkey; settings: for Toxicity (%): Vero
Experimental: as §1, §2, §3, §4

[4] = Virus + Substance, 25 mg/kg/day, i.p. or s.c.
[5] = Virus + Substance, 25 mg/kg/day, 4th Day
[6] = Virus + Substance, 25 mg/kg/day, 8th Day
[7] = Virus + Substance, 25 mg/kg/day, 11th Day
[8] = Virus + Substance, 25 mg/kg/day, 15th Day

Acetylated 5-(3',4',-Dimethoxybenzal) hydantoin [Example 14]
Cumulative morbidity, paralyses, % (Cynomolgus monkeys): 0%
Cumulative morbidity, paralyses, No. (Cynomolgus monkeys): 0/5
Histopathological changes as brain, % (Cynomolgus monkeys): 0%
Histopathological changes as brain, No. (Cynomolgus monkeys): 0/5
effectiveness against the Mahoney Polio virus strain in the infected animals ([1]; Cynomolgus monkeys, result in words): effective against the Mahoney Polio virus strain in the infected animals
Average Day of Paralysis [1, 4]: 13.5
Cumulative morbidity, paralyses, % [1, 4]: 25.0%
Cumulative morbidity, paralyses, No. [1, 4]: 2/8
Histopathological changes as brain, % [1, 4]: 20.0%
Histopathological changes as brain, No. [1, 4]: 2/10
Presence of poliovirus in rectal, % [1, 5]: 36.4%
Presence of poliovirus in rectal, No. [1, 5]: 4/11
Presence of poliovirus in rectal, % [1, 6]: 25.0%
Presence of poliovirus in rectal, No. [1, 6]: 2/8
Presence of poliovirus in rectal, % [1, 7]: 25.0%
Presence of poliovirus in rectal, No. [1, 7]: 2/8
Presence of poliovirus in rectal, % [1, 8]: 16.7%
Presence of poliovirus in rectal, No. [1, 8]: 1/6
subacute LD50 (mice; intraperitoneal, daily injection during 16 days): 400 to 500 mg/kg
LD50 (mice; oral administration): greater than 1,300 mg/kg
Cytotoxicity CTD50 ([2]; Primary Monkey Kidney Cells, 50% inhibition of the cell growth): > 100 µg/mL
Cytotoxicity CTD0 ([2]; Primary Monkey Kidney Cells, maximal non-toxic concentration): > 100 µg/mL
Toxicity (%) ([2]; 0.1 micrograms/ml): 0%
Toxicity (%) ([2]; 0.3 micrograms/ml): 0%
Toxicity (%) ([2]; 0.7 micrograms/ml): 0%
Toxicity (%) ([2]; 1.0 micrograms/ml): 0%
Toxicity (%) ([2]; 3.3 micrograms/ml): 0%
Toxicity (%) ([2]; 6.7 micrograms/ml): 0%
Toxicity (%) ([2]; 10 micrograms/ml): 0%
Toxicity (%) ([2]; 25 micrograms/ml): 0%
Toxicity (%) ([2]; 33.3 micrograms/ml): 0%
Toxicity (%) ([2]; 50 micrograms/ml): 0%
Toxicity (%) ([2]; 66.7 micrograms/ml): 0%
Toxicity (%) ([2]; 75 micrograms/ml): 0%
Toxicity (%) ([2]; 100 micrograms/ml): 0%
Toxicity (%) ([2]; 150 micrograms/ml): 10%
Toxicity (%) ([2]; 200 micrograms/ml): 75%
Toxicity (%) ([2]; 250 micrograms/ml): 100%
Toxicity (%) ([2]; 300 micrograms/ml): 100%
% Inhibition (Echo 9; 0.1 μg/ml): 8%
% Inhibition (Echo 9; 0.3 μg/ml): 29%
% Inhibition (Echo 9; 0.7 μg/ml): 42%
% Inhibition (Echo 9; 1.0 μg/ml): 71%
% Inhibition (Echo 9; 3.3 μg/ml): 92%
% Inhibition (Echo 9; 6.7 μg/ml): 100%
% Inhibition (Echo 9; 10.0 μg/ml): 100%
% Inhibition (Echo 11; 0.1 μg/ml): 7%
% Inhibition (Echo 11; 0.3 μg/ml): 32%
% Inhibition (Echo 11; 0.7 μg/ml): 32%
% Inhibition (Echo 11; 1.0 μg/ml): 68%
% Inhibition (Echo 11; 3.3 μg/ml): 100%
% Inhibition (Echo 11; 6.7 μg/ml): 100%
% Inhibition (Echo 11; 10 μg/ml): 100%
% Inhibition (Echo 11; 25 μg/ml): 100%
% Inhibition (Echo 11; 50 μg/ml): 100%
% Inhibition (Echo 11; 100 μg/ml): 100%
% Inhibition (Polio I; 316 TCID50, 0.5 μg/ml): 93%
% Inhibition (Polio I; 316 TCID50, 1 μg/ml): 100%
% Inhibition (Polio I; 316 TCID50, 5 μg/ml): 100%
% Inhibition (Polio I; 316 TCID50, 10 μg/ml): 100%
degree of antiviral activity [3]: greater degree of antiviral activity than the unacetylated compound
Cytotoxicity CTD50 (Vero cells; Vero cells, 50% inhibition of the cell growth): > 100 µg/mL
Cytotoxicity CTD0 (Vero cells; Vero cells, maximal non-toxic concentration): > 10 µg/mL
Toxicity (%) (Vero cells; 0.1 micrograms/ml): 0%
Toxicity (%) (Vero cells; 0.3 micrograms/ml): 0%
Toxicity (%) (Vero cells; 0.7 micrograms/ml): 0%
Toxicity (%) (Vero cells; 1.0 micrograms/ml): 0%
Toxicity (%) (Vero cells; 3.3 micrograms/ml): 0%
Toxicity (%) (Vero cells; 6.7 micrograms/ml): 0%
Toxicity (%) (Vero cells; 10 micrograms/ml): 10%
Toxicity (%) (Vero cells; 25 micrograms/ml): 10%
Toxicity (%) (Vero cells; 33.3 micrograms/ml): 10%
Toxicity (%) (Vero cells; 50 micrograms/ml): 10%
Toxicity (%) (Vero cells; 66.7 micrograms/ml): 10%
Toxicity (%) (Vero cells; 75 micrograms/ml): 10%
Toxicity (%) (Vero cells; 100 micrograms/ml): 10%
Toxicity (%) (Vero cells; 150 micrograms/ml): 10%
Toxicity (%) (Vero cells; 200 micrograms/ml): 25%
Toxicity (%) (Vero cells; 250 micrograms/ml): 75%
Toxicity (%) (Vero cells; 300 micrograms/ml): 100%
